From ChEMBL document CHEMBL5647694, “Novel orally bioavailable EZH1/2 dual inhibitors with greater antitumor efficacy than an EZH2 selective inhibitor” (Cancer Sci, 2017)

Experiments:
[1] = molecular target: Fibroblast growth factor receptor 1 (Homo sapiens) (UniProt P11362); test: Inhibition of N-terminal GST-fused human FGFR1 cytoplasmic domain (398 to 822 residues ) expressed in baculovirus-infected Sf21 cells using CSKtide as substrate at 1 uM in presence of ATP by Mobility shift assay
[2] = molecular target: Cyclin-dependent kinase 2/cyclin E1 (Homo sapiens) (UniProt P24864+P24941); test: Inhibition of N-terminal GST-tagged full length human CDK2 (1 to 298 residues)/N-terminal GST-tagged human CyclinE1 (1 to 410 residues) expressed in baculovirus-infected Sf21 cells using Modified Histone H1 as substrate at 1 uM in presence of ATP by Mobility shift assay
[3] = molecular target: PI3-kinase p110-alpha/p85-alpha (Homo sapiens) (UniProt P27986+P42336); test: Inhibition of N-terminal DYKDDDDK tagged, biotinylated full length human PIK3CA (1 to 1068 residues)/human PIK3R1 (1 to 724 residues) expressed in baculovirus expression system using PI(4,5)P2 as substrate at 1 uM in presence of ATP by ADP-Glo assay
[4] = molecular target: cGMP-dependent protein kinase 1 (Homo sapiens) (UniProt Q13976); test: Inhibition of N-terminal GST-fused human full length […] (1 to 686 residues) expressed in baculovirus expression system using Kemptide as substrate at 1 uM in presence of ATP by Mobility shift assay
[5] = molecular target: Vascular endothelial growth factor receptor 1 (Homo sapiens) (UniProt P17948); test: Inhibition of N-terminal GST-fused human FLT1 cytoplasmic domain (781 to 1338 residues) expressed in baculovirus-infected Sf21 cells using CSKtide as substrate at 1 uM in presence of ATP by Mobility shift assay
[6] = molecular target: PAS domain-containing serine/threonine-protein kinase (Homo sapiens) (UniProt Q96RG2); test: Inhibition of N-terminal GST-fused human PASK catalytic domain (949 to 1323 residues) expressed in baculovirus expressing system using GS peptide as substrate at 1 uM in presence of ATP by Mobility shift assay
[7] = molecular target: Casein kinase I isoform delta (Homo sapiens) (UniProt P48730); test: Inhibition of N-terminal GST-fused human CK1delta catalytic domain (1 to 294 residues) expressed in Escherichia coli expression system using CKtide as substrate at 1 uM in presence of ATP by Mobility shift assay
[8] = molecular target: Serine/threonine-protein kinase PLK3 (Homo sapiens) (UniProt Q9H4B4); test: Inhibition of N-terminal GST-fused human PLK3 catalytic domain (58 to 340 residues) expressed in baculovirus expression system using CDC25ctide as substrate at 1 uM in presence of ATP by Mobility shift assay
[9] = molecular target: Tyrosine-protein kinase Fyn (Homo sapiens) (UniProt P06241); test: Inhibition of human FYN at 1 uM by mobility shift assay relative to control
[10] = molecular target: Serine/threonine-protein kinase Nek7 (Homo sapiens) (UniProt Q8TDX7); test: Inhibition of N-terminal GST-fused full length human NEK7 (1 to 302 residues) expressed in baculovirus expression system using CDK7 peptide as substrate at 1 uM in presence of ATP by Mobility shift assay
[11] = molecular target: Dual specificity tyrosine-phosphorylation-regulated kinase 2 (Homo sapiens) (UniProt Q92630); test: Inhibition of N-terminal GST-fused full length human DYRK2 (1 to 528 residues) expressed in baculovirus expression system using DYRKtide-F as substrate at 1 uM in presence of ATP by Mobility shift assay
[12] = molecular target: Protein kinase C eta type (Homo sapiens) (UniProt P24723); test: Inhibition of N-terminal GST-fused human full length PKC-eta (1 to 683 residues ) expressed in baculovirus expression system using PKC peptide as substrate at 1 uM in presence of ATP by Mobility shift assay
[13] = molecular target: Ephrin type-A receptor 6 (Homo sapiens) (UniProt Q9UF33); test: Inhibition of N-terminal GST-fused human EPHA6 cytoplasmic domain (683 to 1130 residues) expressed in baculovirus-infected Sf21 cells using Blk/Lyntide as substrate at 1 uM in presence of ATP by Mobility shift assay
[14] = molecular target: Macrophage-stimulating protein receptor (Homo sapiens) (UniProt Q04912); test: Inhibition of N-terminal GST-tagged human RON cytoplasmic domain (979 to 1400 residues) expressed in baculovirus-infected Sf21 cells using Srctide as substrate at 1 uM in presence of ATP by Mobility shift assay
[15] = molecular target: Testis-specific serine/threonine-protein kinase 3 (Homo sapiens) (UniProt Q96PN8); test: Inhibition of N-terminal GST-fused full length human TSSK3 (2 to 268 residues) expressed in baculovirus expression system using GS peptide as substrate at 1 uM in presence of ATP by Mobility shift assay
[16] = molecular target: Dual specificity protein kinase CLK3 (Homo sapiens) (UniProt P49761); test: Inhibition of N-terminal GST-fused full length human CLK3 (1 to 490 residues) expressed in baculovirus expression system using DYRKtide-F as substrate at 1 uM in presence of ATP by Mobility shift assay
[17] = molecular target: Cytoplasmic tyrosine-protein kinase BMX (Homo sapiens) (UniProt P51813); test: Inhibition of N-terminal GST-fused full length human BMX ( 1 to 675 residues) expressed in baculovirus-infected Sf21 cells using Srctide as substrate at 1 uM in presence of ATP by Mobility shift assay
[18] = molecular target: Proto-oncogene tyrosine-protein kinase receptor Ret (Homo sapiens) (UniProt P07949); test: Inhibition of N-terminal GST-tagged human RET cytoplasmic domain (658 to 1114 residues) expressed in baculovirus-infected Sf21 cells using CSKtide as substrate at 1 uM in presence of ATP by Mobility shift assay
[19] = molecular target: Platelet-derived growth factor receptor alpha (Homo sapiens) (UniProt P16234); test: Inhibition of N-terminal GST-tagged human PDGFR-alpha cytoplasmic domain (550 to 1089 residues) expressed in baculovirus-infected Sf21 cells using CSKtide as substrate at 1 uM in presence of ATP by Mobility shift assay
[20] = molecular target: Ribosomal protein S6 kinase alpha-6 (Homo sapiens) (UniProt Q9UK32); test: Inhibition of N-terminal GST-fused human full length RSK4 (1 to 745 residues) expressed in baculovirus expression system using S6K peptide(N-FL) as substrate at 1 uM in presence of ATP by Mobility shift assay
[21] = molecular target: Mast/stem cell growth factor receptor Kit (Homo sapiens) (UniProt P10721); test: Inhibition of N-terminal GST-tagged human KIT cytoplasmic domain (544 to 976 residues) expressed in baculovirus-infected Sf21 cells using Srctide as substrate at 1 uM in presence of ATP by Mobility shift assay
[22] = molecular target: Tyrosine-protein kinase JAK3 (Homo sapiens) (UniProt P52333); test: Inhibition of N-terminal His-tagged human JAK3 catalytic domain (795 to 1124 residues) expressed in baculovirus-infected Sf21 cells using Srctide as substrate at 1 uM in presence of ATP by Mobility shift assay

Sequence of Serine/threonine-protein kinase Nek7 (Homo sapiens) (Q8TDX7 whole entry, looked up, the tested form may be a part): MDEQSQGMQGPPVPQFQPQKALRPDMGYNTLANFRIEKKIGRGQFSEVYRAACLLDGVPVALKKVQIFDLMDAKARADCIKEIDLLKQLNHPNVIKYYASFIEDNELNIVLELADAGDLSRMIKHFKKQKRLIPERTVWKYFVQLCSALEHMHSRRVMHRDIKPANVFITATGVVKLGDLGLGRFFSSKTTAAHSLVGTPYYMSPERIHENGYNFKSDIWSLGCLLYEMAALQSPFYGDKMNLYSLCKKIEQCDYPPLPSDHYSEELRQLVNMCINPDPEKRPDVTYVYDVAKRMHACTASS
Sequence of Platelet-derived growth factor receptor alpha (Homo sapiens) (P16234 whole entry, the tested form may be a part): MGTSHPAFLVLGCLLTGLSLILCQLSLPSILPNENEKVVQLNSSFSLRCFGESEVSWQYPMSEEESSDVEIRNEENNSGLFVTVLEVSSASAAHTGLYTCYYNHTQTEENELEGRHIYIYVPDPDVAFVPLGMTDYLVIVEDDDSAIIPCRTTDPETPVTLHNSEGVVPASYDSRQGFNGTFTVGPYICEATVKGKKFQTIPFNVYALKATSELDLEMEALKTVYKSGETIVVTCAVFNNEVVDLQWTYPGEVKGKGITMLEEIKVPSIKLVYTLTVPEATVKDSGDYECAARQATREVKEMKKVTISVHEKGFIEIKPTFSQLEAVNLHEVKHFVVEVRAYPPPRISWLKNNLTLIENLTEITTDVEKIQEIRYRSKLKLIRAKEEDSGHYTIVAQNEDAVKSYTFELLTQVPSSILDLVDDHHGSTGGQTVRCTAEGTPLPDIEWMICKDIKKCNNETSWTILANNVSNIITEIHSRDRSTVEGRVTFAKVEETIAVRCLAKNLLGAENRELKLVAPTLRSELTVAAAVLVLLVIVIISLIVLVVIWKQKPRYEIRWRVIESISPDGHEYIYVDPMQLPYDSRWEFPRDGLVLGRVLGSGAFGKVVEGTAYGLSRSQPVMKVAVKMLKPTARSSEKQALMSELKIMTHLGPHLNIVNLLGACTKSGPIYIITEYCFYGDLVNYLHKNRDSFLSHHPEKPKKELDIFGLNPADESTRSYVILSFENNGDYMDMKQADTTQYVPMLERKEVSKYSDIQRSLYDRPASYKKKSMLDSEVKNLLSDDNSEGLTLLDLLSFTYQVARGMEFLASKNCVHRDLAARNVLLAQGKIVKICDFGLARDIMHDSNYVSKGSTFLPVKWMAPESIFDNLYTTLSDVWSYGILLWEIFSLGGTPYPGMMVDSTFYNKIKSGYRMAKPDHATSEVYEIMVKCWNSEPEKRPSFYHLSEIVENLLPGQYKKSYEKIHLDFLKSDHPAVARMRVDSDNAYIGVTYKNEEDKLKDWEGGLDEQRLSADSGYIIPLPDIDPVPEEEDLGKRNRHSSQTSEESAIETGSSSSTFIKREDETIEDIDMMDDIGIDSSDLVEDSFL
Sequence of Testis-specific serine/threonine-protein kinase 3 (Homo sapiens) (Q96PN8 whole entry, the tested form may be a part): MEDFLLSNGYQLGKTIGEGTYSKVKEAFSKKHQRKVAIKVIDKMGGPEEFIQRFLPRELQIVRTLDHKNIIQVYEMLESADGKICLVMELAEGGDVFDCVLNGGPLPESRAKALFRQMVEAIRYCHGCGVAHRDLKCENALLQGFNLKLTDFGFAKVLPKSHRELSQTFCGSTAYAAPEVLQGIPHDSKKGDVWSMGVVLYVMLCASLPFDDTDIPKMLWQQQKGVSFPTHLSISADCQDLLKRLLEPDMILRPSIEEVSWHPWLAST
Sequence of Casein kinase I isoform delta (Homo sapiens) (P48730 whole entry, looked up, the tested form may be a part, canonical isoform): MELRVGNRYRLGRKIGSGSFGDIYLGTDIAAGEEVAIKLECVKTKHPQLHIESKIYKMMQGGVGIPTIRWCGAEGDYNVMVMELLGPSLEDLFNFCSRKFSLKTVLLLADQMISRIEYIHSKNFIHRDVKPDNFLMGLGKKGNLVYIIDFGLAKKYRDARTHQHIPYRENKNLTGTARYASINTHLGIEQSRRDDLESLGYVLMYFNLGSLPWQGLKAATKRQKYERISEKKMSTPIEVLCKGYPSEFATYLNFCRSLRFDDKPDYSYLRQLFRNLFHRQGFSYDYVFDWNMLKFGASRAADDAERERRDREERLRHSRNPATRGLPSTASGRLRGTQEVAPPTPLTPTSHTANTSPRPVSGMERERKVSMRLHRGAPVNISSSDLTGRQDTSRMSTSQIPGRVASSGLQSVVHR
Sequence of Dual specificity protein kinase CLK3 (Homo sapiens) (P49761 whole entry, looked up, the tested form may be a part): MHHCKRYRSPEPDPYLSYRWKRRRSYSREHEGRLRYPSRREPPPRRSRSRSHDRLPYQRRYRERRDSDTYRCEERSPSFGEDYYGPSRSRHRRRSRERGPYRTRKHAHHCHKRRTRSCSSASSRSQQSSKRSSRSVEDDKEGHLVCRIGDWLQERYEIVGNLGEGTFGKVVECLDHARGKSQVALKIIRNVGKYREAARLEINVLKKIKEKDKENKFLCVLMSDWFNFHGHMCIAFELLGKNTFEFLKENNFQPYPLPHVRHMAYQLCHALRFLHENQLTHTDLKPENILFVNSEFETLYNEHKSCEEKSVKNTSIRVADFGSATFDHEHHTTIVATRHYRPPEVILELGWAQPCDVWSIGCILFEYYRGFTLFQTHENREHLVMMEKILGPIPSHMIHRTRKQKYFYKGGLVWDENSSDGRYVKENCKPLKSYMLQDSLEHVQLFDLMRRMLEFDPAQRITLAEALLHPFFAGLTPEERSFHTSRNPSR
Sequence of Tyrosine-protein kinase Fyn (Homo sapiens) (P06241 2-537 limits assumed): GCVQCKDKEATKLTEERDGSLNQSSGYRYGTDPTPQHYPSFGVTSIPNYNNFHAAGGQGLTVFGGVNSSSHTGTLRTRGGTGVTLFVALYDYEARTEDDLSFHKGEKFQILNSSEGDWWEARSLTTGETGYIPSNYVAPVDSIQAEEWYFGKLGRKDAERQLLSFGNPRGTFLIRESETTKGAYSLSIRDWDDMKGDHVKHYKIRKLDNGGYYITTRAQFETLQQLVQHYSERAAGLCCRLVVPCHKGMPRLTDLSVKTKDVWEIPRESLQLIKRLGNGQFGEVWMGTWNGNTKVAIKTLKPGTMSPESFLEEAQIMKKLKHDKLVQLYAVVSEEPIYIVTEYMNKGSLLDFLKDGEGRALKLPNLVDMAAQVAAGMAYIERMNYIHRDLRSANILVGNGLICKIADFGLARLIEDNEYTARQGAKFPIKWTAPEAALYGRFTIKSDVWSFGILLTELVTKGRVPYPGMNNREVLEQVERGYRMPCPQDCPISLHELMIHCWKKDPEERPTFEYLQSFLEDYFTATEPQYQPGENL
Sequence of Vascular endothelial growth factor receptor 1 (Homo sapiens) (P17948 whole entry, the tested form may be a part): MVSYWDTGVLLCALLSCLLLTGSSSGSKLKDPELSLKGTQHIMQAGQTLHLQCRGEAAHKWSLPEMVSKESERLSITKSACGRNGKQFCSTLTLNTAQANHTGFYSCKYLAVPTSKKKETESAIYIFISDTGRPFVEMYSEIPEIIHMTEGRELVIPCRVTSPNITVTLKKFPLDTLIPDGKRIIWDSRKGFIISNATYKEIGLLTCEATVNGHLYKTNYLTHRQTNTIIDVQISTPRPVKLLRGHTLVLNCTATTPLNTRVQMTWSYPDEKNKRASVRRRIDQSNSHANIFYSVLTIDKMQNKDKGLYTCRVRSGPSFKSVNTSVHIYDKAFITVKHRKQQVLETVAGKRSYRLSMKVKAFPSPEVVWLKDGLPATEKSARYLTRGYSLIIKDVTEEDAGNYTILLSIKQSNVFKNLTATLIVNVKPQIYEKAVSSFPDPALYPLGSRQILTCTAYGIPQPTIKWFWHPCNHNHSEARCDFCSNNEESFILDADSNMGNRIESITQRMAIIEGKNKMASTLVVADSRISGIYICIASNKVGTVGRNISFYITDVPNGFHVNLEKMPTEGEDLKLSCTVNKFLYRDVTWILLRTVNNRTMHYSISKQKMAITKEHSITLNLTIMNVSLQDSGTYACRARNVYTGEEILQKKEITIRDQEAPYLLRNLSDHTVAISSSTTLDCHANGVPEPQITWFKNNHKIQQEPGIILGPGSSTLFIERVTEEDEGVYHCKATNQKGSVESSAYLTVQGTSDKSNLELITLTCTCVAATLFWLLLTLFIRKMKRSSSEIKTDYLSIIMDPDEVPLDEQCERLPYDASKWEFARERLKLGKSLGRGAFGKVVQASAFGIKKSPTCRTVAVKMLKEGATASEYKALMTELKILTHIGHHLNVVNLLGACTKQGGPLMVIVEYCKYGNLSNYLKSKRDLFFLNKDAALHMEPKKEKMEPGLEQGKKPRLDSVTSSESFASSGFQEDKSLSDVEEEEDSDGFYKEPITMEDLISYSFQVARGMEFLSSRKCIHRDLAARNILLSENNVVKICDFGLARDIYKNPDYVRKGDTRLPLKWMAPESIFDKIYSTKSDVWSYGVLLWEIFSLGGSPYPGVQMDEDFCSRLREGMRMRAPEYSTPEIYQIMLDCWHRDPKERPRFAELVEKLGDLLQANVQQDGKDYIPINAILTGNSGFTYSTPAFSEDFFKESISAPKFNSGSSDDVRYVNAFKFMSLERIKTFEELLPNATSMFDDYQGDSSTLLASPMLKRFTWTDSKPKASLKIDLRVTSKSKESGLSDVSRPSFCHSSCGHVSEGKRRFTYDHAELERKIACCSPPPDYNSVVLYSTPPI
Sequence of Dual specificity tyrosine-phosphorylation-regulated kinase 2 (Homo sapiens) (Q92630 whole entry, the tested form may be a part): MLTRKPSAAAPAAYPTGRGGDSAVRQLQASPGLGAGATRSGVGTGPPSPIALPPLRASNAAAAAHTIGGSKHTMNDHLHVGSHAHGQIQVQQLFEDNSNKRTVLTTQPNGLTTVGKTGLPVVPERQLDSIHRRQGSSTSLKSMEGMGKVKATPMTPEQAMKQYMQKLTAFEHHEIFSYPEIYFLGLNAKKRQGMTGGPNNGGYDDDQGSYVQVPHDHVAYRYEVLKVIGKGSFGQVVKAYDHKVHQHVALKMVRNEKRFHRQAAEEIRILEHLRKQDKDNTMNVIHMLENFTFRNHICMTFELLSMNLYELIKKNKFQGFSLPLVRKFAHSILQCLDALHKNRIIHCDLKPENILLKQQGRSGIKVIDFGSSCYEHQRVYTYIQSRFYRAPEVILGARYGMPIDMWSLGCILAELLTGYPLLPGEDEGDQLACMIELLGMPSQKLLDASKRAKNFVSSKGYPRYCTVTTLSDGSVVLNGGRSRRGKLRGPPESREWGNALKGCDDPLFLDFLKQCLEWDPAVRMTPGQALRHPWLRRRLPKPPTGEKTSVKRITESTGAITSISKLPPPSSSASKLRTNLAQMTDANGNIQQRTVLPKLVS

Work on Cc1cc(C)c(CNC(=O)c2cc(Cl)c3c(c2C)O[C@@](C)([C@H]2CC[C@H](N(C)C)CC2)O3)c(=O)[nH]1 [VALEMETOSTAT] yielded an inhibition [1] of -4.3%, an inhibition [2] of -2.1% and an inhibition [3] of 0.6%. For the same compound, the inhibition [4] was -2.1%, the inhibition [5] was -5.2% and the inhibition [6] was -5.8%. For the same compound, the inhibition [7] was -3.8%, the inhibition [8] was -7.8% and the inhibition [9] was 5.1%. It also gave an inhibition [10] of 1.6%, an inhibition [11] of 6% and an inhibition [12] of 19.8%. The inhibition [13] was 0.1%, the inhibition [14] was -3.5% and the inhibition [15] was 7.3%. The inhibition [16] was 1.6%, the inhibition [17] was -3.1% and the inhibition [18] was -5.7%. The inhibition [19] was -4.4%, the inhibition [20] was -0.5% and the inhibition [21] was -5.6%. It also gave an inhibition [22] of -4%.
Cc1cc(C)c(CNC(=O)c2cc(Br)c3c(c2C)O[C@@](C)([C@H]2CC[C@H](N(C)C)CC2)O3)c(=O)[nH]1 gave an inhibition [1] of -2.9%, an inhibition [2] of 19.9% and an inhibition [3] of 9.8%. The inhibition [4] was -4.3%, the inhibition [5] was -4.4% and the inhibition [6] was -3.7%. The inhibition [7] was -3%, the inhibition [8] was -1.3% and the inhibition [9] was 2.6%. For the same compound, the inhibition [10] was 2.8%, the inhibition [11] was -2.3% and the inhibition [12] was 10.8%. For the same compound, the inhibition [13] was -3.8%, the inhibition [14] was -4.9% and the inhibition [15] was 12.1%. It also gave an inhibition [16] of -2%, an inhibition [17] of -2.2% and an inhibition [18] of -2.3%. It also gave an inhibition [19] of -6.1%, an inhibition [20] of -2.5% and an inhibition [21] of -4.7%. For the same compound, the inhibition [22] was -1.7%.
